Reference: patent US10131634B2, “Method of treating pain” (Poseida Therapeutics, Inc., priority 2011, dated 2018)

Columns and labels:
wild type rats [1] = test: Pain related behaviours after colon mustard (MO) infusion in wild type rats; assay type: in vivo, rat
wild type rats [2] = test: Side effects in wild type rats dosed with compound; assay type: in vivo, rat
Method: The quinoline structure Formula 1a is tested in cells and rats.

Row | SMILES | inhibition of pain (wild type rats [1]; colon mustard infusion, FIG. 1 (lower body licking)) | cardiotoxicity (wild type rats [2]) | side effects (wild type rats [2]) | doses to inhibit pain related behaviors induced by intracolonic MO infusion (morphine equivalency) (wild type rats [1]; pre-treatment, s.c., FIGS. 7-9)
1 | Cc1cc(N2CCCCC2)nc2ccccc12 [Formula 1a] | dose responsive inhibition of pain | no cardiotoxicity | no obvious side effects | 
2 | CN1CC[C@]23c4c5ccc(O)c4O[C@H]2[C@@H](O)C=C[C@H]3[C@H]1C5 [morphine, reference compound] |  |  |  | requires much higher doses
